From ChEMBL document CHEMBL4765227, “Hit to lead optimization of a series of N-[4-(1,3-benzothiazol-2-yl)phenyl]acetamides as monoacylglycerol lipase inhibitors with potential anticancer activity” (Eur J Med Chem, 2016)

Columns and labels:
Assay type in all cases: functional
Details in all cases: read-out: GI
[1] = tested on: DU-145; experiment: Growth inhibition of human DU-145 cells at 10 uM incubated for 48 hrs by sulforhodamine B assay relative to control
[2] = tested on: IGROV-1; experiment: Growth inhibition of human IGROV-1 cells at 10 uM incubated for 48 hrs by sulforhodamine B assay relative to control
[3] = tested on: HOP-92; experiment: Growth inhibition of human HOP-92 cells at 10 uM incubated for 48 hrs by sulforhodamine B assay relative to control
[4] = tested on: NCI-H322M; experiment: Growth inhibition of human NCI-H322M cells at 10 uM incubated for 48 hrs by sulforhodamine B assay relative to control
[5] = tested on: NCI-H460; experiment: Growth inhibition of human NCI-H460 cells at 10 uM incubated for 48 hrs by sulforhodamine B assay relative to control
[6] = tested on: RPMI-8226; experiment: Growth inhibition of human RPMI-8226 cells at 10 uM incubated for 48 hrs by sulforhodamine B assay relative to control
[7] = tested on: A549; experiment: Growth inhibition of human A549/ATCC cells at 10 uM incubated for 48 hrs by sulforhodamine B assay relative to control
[8] = tested on: HCC 2998; experiment: Growth inhibition of human HCC 2998 cells at 10 uM incubated for 48 hrs by sulforhodamine B assay relative to control
[9] = tested on: HCT-116; experiment: Growth inhibition of human HCT-116 cells at 10 uM incubated for 48 hrs by sulforhodamine B assay relative to control
[10] = tested on: SK-MEL-5; experiment: Growth inhibition of human SK-MEL-5 cells at 10 uM incubated for 48 hrs by sulforhodamine B assay relative to control
[11] = tested on: NCI-H23; experiment: Growth inhibition of human NCI-H23 cells at 10 uM incubated for 48 hrs by sulforhodamine B assay relative to control
[12] = tested on: TK-10; experiment: Growth inhibition of human TK-10 cells at 10 uM incubated for 48 hrs by sulforhodamine B assay relative to control
[13] = tested on: OVCAR-5; experiment: Growth inhibition of human OVCAR-5 cells at 10 uM incubated for 48 hrs by sulforhodamine B assay relative to control
[14] = tested on: SK-OV-3; experiment: Growth inhibition of human SK-OV-3 cells at 10 uM incubated for 48 hrs by sulforhodamine B assay relative to control
[15] = tested on: 786-0; experiment: Growth inhibition of human 786-0 cells at 10 uM incubated for 48 hrs by sulforhodamine B assay relative to control
[16] = tested on: CAKI-1; experiment: Growth inhibition of human CAKI-1 cells at 10 uM incubated for 48 hrs by sulforhodamine B assay relative to control
[17] = tested on: MDA-MB-435; experiment: Growth inhibition of human MDA-MB-435 cells at 10 uM incubated for 48 hrs by sulforhodamine B assay relative to control
[18] = tested on: UACC-62; experiment: Growth inhibition of human UACC-62 cells at 10 uM incubated for 48 hrs by sulforhodamine B assay relative to control
[19] = tested on: SNB-75; experiment: Growth inhibition of human SNB-75 cells at 10 uM incubated for 48 hrs by sulforhodamine B assay relative to control
[20] = tested on: NCI-H226; experiment: Growth inhibition of human NCI-H226 cells at 10 uM incubated for 48 hrs by sulforhodamine B assay relative to control
[21] = tested on: CCRF-CEM; experiment: Growth inhibition of human CCRF-CEM cells at 10 uM incubated for 48 hrs by sulforhodamine B assay relative to control
[22] = tested on: SK-MEL-28; experiment: Growth inhibition of human SK-MEL-28 cells at 10 uM incubated for 48 hrs by sulforhodamine B assay relative to control
[23] = tested on: T47D; experiment: Growth inhibition of human T47D cells at 10 uM incubated for 48 hrs by sulforhodamine B assay relative to control
[24] = tested on: NCI-H522; experiment: Growth inhibition of human NCI-H522 cells at 10 uM incubated for 48 hrs by sulforhodamine B assay relative to control
[25] = tested on: MDA-MB-231; experiment: Growth inhibition of human MDA-MB-231 cells at 10 uM incubated for 48 hrs by sulforhodamine B assay relative to control
[26] = tested on: UACC-257; experiment: Growth inhibition of human UACC-257 cells at 10 uM incubated for 48 hrs by sulforhodamine B assay relative to control
[27] = tested on: RXF 393; experiment: Growth inhibition of human RXF 393 cells at 10 uM incubated for 48 hrs by sulforhodamine B assay relative to control
[28] = tested on: KM12; experiment: Growth inhibition of human KM12 cells at 10 uM incubated for 48 hrs by sulforhodamine B assay relative to control
[29] = tested on: HCT-15; experiment: Growth inhibition of human HCT-15 cells at 10 uM incubated for 48 hrs by sulforhodamine B assay relative to control
[30] = tested on: HT-29; experiment: Growth inhibition of human HT-29 cells at 10 uM incubated for 48 hrs by sulforhodamine B assay relative to control
[31] = tested on: NCI/ADR-RES; experiment: Growth inhibition of human NCI/ADR-RES cells at 10 uM incubated for 48 hrs by sulforhodamine B assay relative to control
[32] = tested on: SW-620; experiment: Growth inhibition of human SW-620 cells at 10 uM incubated for 48 hrs by sulforhodamine B assay relative to control
[33] = tested on: OVCAR-3; experiment: Growth inhibition of human OVCAR-3 cells at 10 uM incubated for 48 hrs by sulforhodamine B assay relative to control
[34] = tested on: Malme-3M; experiment: Growth inhibition of human Malme-3M cells at 10 uM incubated for 48 hrs by sulforhodamine B assay relative to control
[35] = tested on: COLO 205; experiment: Growth inhibition of human COLO 205 cells at 10 uM incubated for 48 hrs by sulforhodamine B assay relative to control
[36] = tested on: SF-268; experiment: Growth inhibition of human SF-268 cells at 10 uM incubated for 48 hrs by sulforhodamine B assay relative to control
[37] = tested on: ACHN; experiment: Growth inhibition of human ACHN cells at 10 uM incubated for 48 hrs by sulforhodamine B assay relative to control
[38] = tested on: BT-549; experiment: Growth inhibition of human BT-549 cells at 10 uM incubated for 48 hrs by sulforhodamine B assay relative to control
[39] = tested on: K562; experiment: Growth inhibition of human K562 cells at 10 uM incubated for 48 hrs by sulforhodamine B assay relative to control
[40] = tested on: MCF7; experiment: Growth inhibition of human MCF7 cells at 10 uM incubated for 48 hrs by sulforhodamine B assay relative to control
[41] = tested on: LOX IMVI; experiment: Growth inhibition of human LOX IMVI cells at 10 uM incubated for 48 hrs by sulforhodamine B assay relative to control
[42] = tested on: OVCAR-4; experiment: Growth inhibition of human OVCAR-4 cells at 10 uM incubated for 48 hrs by sulforhodamine B assay relative to control
[43] = tested on: SNB-19; experiment: Growth inhibition of human SNB-19 cells at 10 uM incubated for 48 hrs by sulforhodamine B assay relative to control
[44] = tested on: M14; experiment: Growth inhibition of human M14 cells at 10 uM incubated for 48 hrs by sulforhodamine B assay relative to control

With `O=C(Cn1cnc2ccccc21)Nc1ccc(-c2nc3ccccc3s2)cc1` the inhibition of growth at 10 µM [1] was 21.8%, the inhibition of growth at 10 µM [2] was 35.1% and the inhibition of growth at 10 µM [3] was 18.4%. For the same compound, the inhibition of growth at 10 µM [4] was 8.06%, the inhibition of growth at 10 µM [5] was 34.3% and the inhibition of growth at 10 µM [6] was 62.6%. It also gave an inhibition of growth at 10 µM [7] of 39%, an inhibition of growth at 10 µM [8] of 24.9% and an inhibition of growth at 10 µM [9] of 56.5%. It also gave an inhibition of growth at 10 µM [10] of 70.9%, an inhibition of growth at 10 µM [11] of 51.5% and an inhibition of growth at 10 µM [12] of 22.6%. For the same compound, the inhibition of growth at 10 µM [13] was -5.63%, the inhibition of growth at 10 µM [14] was 15.1% and the inhibition of growth at 10 µM [15] was 20.5%. The inhibition of growth at 10 µM [16] was 38.1%, the inhibition of growth at 10 µM [17] was 32.3% and the inhibition of growth at 10 µM [18] was 13%. The inhibition of growth at 10 µM [19] was 6.6%, the inhibition of growth at 10 µM [20] was 36.9% and the inhibition of growth at 10 µM [21] was 27.1%. For the same compound, the inhibition of growth at 10 µM [22] was -0.72%, the inhibition of growth at 10 µM [23] was 52.8% and the inhibition of growth at 10 µM [24] was 33.4%. It also gave an inhibition of growth at 10 µM [25] of 9.34%, an inhibition of growth at 10 µM [26] of 37.9% and an inhibition of growth at 10 µM [27] of 6.89%. The inhibition of growth at 10 µM [28] was 24.9%, the inhibition of growth at 10 µM [29] was 7.41% and the inhibition of growth at 10 µM [30] was 12.7%. The inhibition of growth at 10 µM [31] was 38.9%, the inhibition of growth at 10 µM [32] was 15.2% and the inhibition of growth at 10 µM [33] was 35.8%. It also gave an inhibition of growth at 10 µM [34] of 18.9%, an inhibition of growth at 10 µM [35] of 22.5% and an inhibition of growth at 10 µM [36] of 14.7%. It also gave an inhibition of growth at 10 µM [37] of 15.5%, an inhibition of growth at 10 µM [38] of 43.5% and an inhibition of growth at 10 µM [39] of 66.4%. It also gave an inhibition of growth at 10 µM [40] of 50.6%, an inhibition of growth at 10 µM [41] of 44.6% and an inhibition of growth at 10 µM [42] of 57.9%. It also gave an inhibition of growth at 10 µM [43] of 28.5% and an inhibition of growth at 10 µM [44] of 13.6%.

In the case of `O=C(CNCc1ccccc1)Nc1ccc(-c2nc3ccccc3s2)cc1`, the inhibition of growth at 10 µM [1] was -7.09%, the inhibition of growth at 10 µM [2] was -2.9% and the inhibition of growth at 10 µM [3] was 15.1%. The inhibition of growth at 10 µM [4] was 17.8%, the inhibition of growth at 10 µM [5] was 3.57% and the inhibition of growth at 10 µM [6] was 10.1%. For the same compound, the inhibition of growth at 10 µM [7] was 22.7%, the inhibition of growth at 10 µM [8] was 9.91% and the inhibition of growth at 10 µM [9] was 5.15%. The inhibition of growth at 10 µM [10] was 5.63%, the inhibition of growth at 10 µM [11] was 9.23% and the inhibition of growth at 10 µM [12] was -12%. It also gave an inhibition of growth at 10 µM [13] of 12.3%, an inhibition of growth at 10 µM [14] of -18.4% and an inhibition of growth at 10 µM [15] of 8.55%. It also gave an inhibition of growth at 10 µM [16] of 9.29%, an inhibition of growth at 10 µM [17] of 4.91% and an inhibition of growth at 10 µM [18] of 7.61%. For the same compound, the inhibition of growth at 10 µM [19] was 18%, the inhibition of growth at 10 µM [20] was 15.8% and the inhibition of growth at 10 µM [21] was 9.29%. For the same compound, the inhibition of growth at 10 µM [22] was 2.7%, the inhibition of growth at 10 µM [23] was 11.6% and the inhibition of growth at 10 µM [24] was 9.64%. For the same compound, the inhibition of growth at 10 µM [25] was 16.9%, the inhibition of growth at 10 µM [26] was 4.97% and the inhibition of growth at 10 µM [27] was -3.76%. The inhibition of growth at 10 µM [28] was 2.66%, the inhibition of growth at 10 µM [29] was 8.74% and the inhibition of growth at 10 µM [30] was 1.86%. For the same compound, the inhibition of growth at 10 µM [31] was -0.82%, the inhibition of growth at 10 µM [32] was -1.34% and the inhibition of growth at 10 µM [33] was 8.88%. For the same compound, the inhibition of growth at 10 µM [34] was -6.22%, the inhibition of growth at 10 µM [35] was -11.5% and the inhibition of growth at 10 µM [36] was 3.99%. For the same compound, the inhibition of growth at 10 µM [37] was 0.1%, the inhibition of growth at 10 µM [38] was 1.91% and the inhibition of growth at 10 µM [39] was 11.6%. It also gave an inhibition of growth at 10 µM [40] of 61.6%, an inhibition of growth at 10 µM [41] of 3.99% and an inhibition of growth at 10 µM [42] of 2.46%. The inhibition of growth at 10 µM [43] was 2.46% and the inhibition of growth at 10 µM [44] was 3.6%.
